Laboratory results as given in publication PMC11783601, “Analogue-Sensitive Inhibition of Histone Demethylases Uncovers Member-Specific Function in Ribosomal Protein Synthesis” (Journal of the American Chemical Society, 2025).

Assays:
wild type 2OG enzymes = experiment: Off-target activity across wild type 2OG enzymes (MALDI-MS or dot blots); format: biochemical, human; conditions: concentrations up to 200 μM
Excerpt: We sought to examine the orthogonality of compound 6 across the human 2OG enzyme family. […] These amino acids, bulky and hydrophobic in nature, likely act as the gatekeeper and preclude binding of the NOG analogues to wild type enzymes. To test the off-target activity of 6, we recombinantly expressed the catalytic domains of 12 wild type dioxygenases, in addition to KDM4A-E, thus covering 30–40% of human 2OG enzymes known to have well-characterized substrates (Figure 3D).

TET2 = experiment: MALDI-based assay for TET2 on 5-mC DNA substrate; format: biochemical, human; conditions: MALDI-TOF, 5mC oligonucleotide
Procedure: Aliquots were kept on ice for 10 minutes before addition of 200
µM 2OG or equivalent volume of water. After 30-60 minutes incubation at 37 °C, 1 µL sample and
1 µL S-DHB matrix were spotted on a MALDI plate and monitored with Bruker FlexControl in
the reflectron positive mode and analyzed on Bruker FlexAnalysis software. Relative inhibition
was monitored via assessing percent product decrease with L-Leu NOG samples compared to no
temperature for 10 minutes.

CC(C)CC(NC(=O)C(=O)O)C(=O)O (centres unmarked) [compound 6, N-oxalyl leucine]
inhibition of wild type 2OG enzymes (wild type 2OG enzymes): did not inhibit | inhibition of TET2 (TET2): No inhibition
